Test results published in patent publication US12351574B2, “Selective ligands for modulation of GIRK channels” (Northeastern University, priority 2018, dated 2025).

Legend:
GIRK1/4(V-I) = target: T1, GIRK1/4(V-I) (Homo sapiens, UniProt P48544+P48549, V92I); assay: TEVC in Xenopus oocytes, single mutant GIRK1/4(V-I); assay type: cell-based; conditions: GIRK1/4(V-I) single mutant
T1 construct: expressed in transfected cells; host or cells: Xenopus laevis oocytes (cRNA injection)
T1 sequence (P48549 1-501): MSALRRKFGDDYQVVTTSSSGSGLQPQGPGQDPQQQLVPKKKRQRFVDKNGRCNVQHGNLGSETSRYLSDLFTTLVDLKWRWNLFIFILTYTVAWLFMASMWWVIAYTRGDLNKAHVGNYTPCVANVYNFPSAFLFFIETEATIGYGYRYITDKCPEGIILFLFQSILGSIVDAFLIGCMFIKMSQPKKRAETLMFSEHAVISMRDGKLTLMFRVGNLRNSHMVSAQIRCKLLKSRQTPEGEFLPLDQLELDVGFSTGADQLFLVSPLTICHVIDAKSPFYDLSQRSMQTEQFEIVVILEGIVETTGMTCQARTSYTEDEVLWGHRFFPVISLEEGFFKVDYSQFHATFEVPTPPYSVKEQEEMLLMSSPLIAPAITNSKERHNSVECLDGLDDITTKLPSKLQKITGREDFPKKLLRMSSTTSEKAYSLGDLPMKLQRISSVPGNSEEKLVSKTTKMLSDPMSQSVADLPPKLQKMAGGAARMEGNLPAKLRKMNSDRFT
T1 sequence (P48544 1-419 V92I): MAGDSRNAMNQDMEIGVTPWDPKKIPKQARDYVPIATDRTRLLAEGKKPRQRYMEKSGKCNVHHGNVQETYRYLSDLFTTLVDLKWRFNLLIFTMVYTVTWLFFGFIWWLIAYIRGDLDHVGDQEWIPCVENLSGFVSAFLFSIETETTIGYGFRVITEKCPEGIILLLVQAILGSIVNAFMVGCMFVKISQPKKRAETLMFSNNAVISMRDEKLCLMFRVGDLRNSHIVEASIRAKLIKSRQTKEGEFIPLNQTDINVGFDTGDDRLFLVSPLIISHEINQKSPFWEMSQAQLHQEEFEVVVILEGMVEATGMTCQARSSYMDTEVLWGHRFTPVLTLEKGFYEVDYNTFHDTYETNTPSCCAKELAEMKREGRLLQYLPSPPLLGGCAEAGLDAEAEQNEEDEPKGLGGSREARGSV
From the text: Molecular biology: For Xenopus oocyte expression, human GIRK1 and human GIRK4 cDNAs were subcloned into pGEMHE. For mammalian expression, human GIRK1 and human GIRK4 cDNAs were subcloned into pcDNA3 and pcDNA3.1/V5-His B, respectively (Invitrogen). Mouse GIRK2 cDNA was subcloned in the dual-function vector, pXoom. Point mutations were introduced using a standard Pfu-based mutagenesis technique according to the QuikChange protocol (Agilent). Mutations were verified by sequencing.
Electrophysiology of oocytes: Whole-oocyte currents were measured by conventional two-electrode voltage clamp (TEVC) with a GeneClamp 500 amplifier (Axon Instruments). Agarose cushion microelectrodes were filled with 1.5% (w/v) agarose in 3 M KCl and were used with resistances between 0.1 and 1.5 megaohms. […] Barium-sensitive basal currents from both groups, 1) Vehicle, 2) single concentration at 10 μM and 3) multiple concentrations of ML297 or GAT compounds in the presence of HK solution, were assessed at −80 mV using TEVC. Barium-sensitive currents were normalized to average basal current in the vehicle solutions. The HK solution contained the following: 96 mM KCl, 1 mM NaCl, 1 mM MgCl2, 5 mM KOH/HEPES, pH 7.4. The barium solution consisted of HK+10 mM BaCl2. Five to ten oocytes from the same batch (same frog) were recorded for each group, and the experiments were repeated in at least four batches. Data acquisition and analysis were carried out using pClamp9 (Molecular Devices) and OriginPro (Microcal) software.
To test these computational predictions, the inventors mutated each or both of the two M1 key wild-type GIRK4 subunit residues to the corresponding GIRK2 residues (GIRK4-V92I, GIRK4-T94V, GIRK4-V92I/T94V or GIRK4-dm) and vice-versa the GIRK2 residues to the corresponding GIRK4 ones (GIRK2-I97V, GIRK2-V99T, GIRK2-I97V/V99T or GIRK2-dm) (FIG. 35). […]

light-dark box (LD) test = assay type: in vivo, rat; conditions: 10 and 30 mg/kg
Description: Light-dark box: Light-Dark Box test was preformed using a cage 52×100×39 cm divided into two equal sections by an opening. One section is brightly illuminated whereas the other section is dark. Animals were injected 30 min prior to testing with vehicle or ligand and then placed into the light side with immediate access to explore the entire cage. Time spent in the illuminated section was analyzed. The chamber was cleaned between each experiment.

[1] = target: human ERG (hERG) channels (Homo sapiens, UniProt Q12809); conditions: 5 µM
Chain of human ERG (hERG) channels (Q12809 whole entry): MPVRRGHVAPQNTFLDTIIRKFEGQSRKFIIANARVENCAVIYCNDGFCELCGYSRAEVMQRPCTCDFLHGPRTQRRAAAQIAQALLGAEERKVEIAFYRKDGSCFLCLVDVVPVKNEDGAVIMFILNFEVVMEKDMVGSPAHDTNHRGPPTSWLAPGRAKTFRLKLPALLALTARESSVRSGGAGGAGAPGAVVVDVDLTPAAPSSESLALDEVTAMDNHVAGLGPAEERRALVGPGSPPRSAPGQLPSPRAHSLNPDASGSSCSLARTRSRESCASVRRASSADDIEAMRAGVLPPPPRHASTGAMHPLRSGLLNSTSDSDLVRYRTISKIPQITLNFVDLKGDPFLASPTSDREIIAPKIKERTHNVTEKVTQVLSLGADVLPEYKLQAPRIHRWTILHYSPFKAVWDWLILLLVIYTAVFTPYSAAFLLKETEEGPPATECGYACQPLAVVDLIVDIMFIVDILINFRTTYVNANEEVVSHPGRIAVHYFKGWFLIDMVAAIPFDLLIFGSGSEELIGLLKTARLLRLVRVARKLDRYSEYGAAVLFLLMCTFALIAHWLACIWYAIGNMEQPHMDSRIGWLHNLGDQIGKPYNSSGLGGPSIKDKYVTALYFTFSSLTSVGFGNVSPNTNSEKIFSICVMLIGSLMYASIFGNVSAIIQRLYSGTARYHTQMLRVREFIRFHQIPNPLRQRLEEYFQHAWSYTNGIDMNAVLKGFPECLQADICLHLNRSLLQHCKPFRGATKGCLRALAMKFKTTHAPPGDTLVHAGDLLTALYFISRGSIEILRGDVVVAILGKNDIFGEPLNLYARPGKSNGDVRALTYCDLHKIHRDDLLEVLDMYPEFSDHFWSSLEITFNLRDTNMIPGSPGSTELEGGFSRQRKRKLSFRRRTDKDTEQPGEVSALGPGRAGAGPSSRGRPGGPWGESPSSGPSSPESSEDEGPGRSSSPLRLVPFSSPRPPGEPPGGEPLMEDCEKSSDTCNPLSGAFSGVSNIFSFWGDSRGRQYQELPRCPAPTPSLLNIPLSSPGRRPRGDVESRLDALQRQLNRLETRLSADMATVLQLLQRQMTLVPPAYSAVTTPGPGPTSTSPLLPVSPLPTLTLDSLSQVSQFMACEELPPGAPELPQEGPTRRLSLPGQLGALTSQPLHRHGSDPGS
Description: In FIG. 52A, human ERG (hERG) channels were expressed in Xenopus oocytes and studied by two-electrode voltage clamp (TEVC). In FIG. 52A, hERG tail-current magnitude was assessed at −50 mV, following a 4 second test step to 20 mV from a holding voltage of −100 mV. The test pulse was repeated every 10-seconds. […] Two-electrode voltage-clamp and data analysis: Whole-oocyte currents were measured by two-electrode voltage clamp (TEVC) with GeneClamp 500 (Molecular Devices), or TEC-03X (NPI) amplifiers. […] The oocytes were bathed in ND96 recording solution comprising, in mM: KCl 2, NaCl 96, MgCl2 1 and HEPES 5, buffered to pH 7.4 with KOH. Where indicated, GIRK channel currents were assessed in a high K^+ recording solution comprising, in mM: KCl 96, NaCl 2, MgCl2 1 and HEPES 5, buffered to pH 7.4 with KOH. Currents were digitized using a USB interface (National Instruments) and recorded using WinWCP software (University of Strathclyde). To study GIRK channels, oocytes were held at 0 mV, and currents were assessed by 100 ms ramps from −80 to +80 mV that were repeated every second. The effect of the reagents was determined at −80 mV, then the channels were blocked by 5 mM BaCl2. Block was expressed as the percent-current block normalized to the maximum current. Between 8-12 oocytes from different Xenopus frogs were studied per experiment.

Compound	EC50 (GIRK1/4(V-I)) [nM]	EMAX (GIRK1/4(V-I))	Emax (GIRK1/4(V-I); read-out: EMAX, % of the control GIRK1/2) [%]	time spent in the light compartment versus vehicle (in words) (light-dark box (LD) test)	inhibition of the hERG tail current [1] [%]
Cc1cc(NC(=O)Nc2ccc(Br)s2)n(-c2ccccc2)n1 [GAT1508, 1-(5-bromothiophen-2-yl)-3-(3-methyl-1-phenyl-1H-pyrazol-5-yl)urea]	530 ± 150	1.29±0.03	11	no difference	
Cc1cc(NC(=O)Nc2ccc(F)c(F)c2)n(-c2ccccc2)n1 [ML297, reference compound]					~40
